Laboratory results as given in BindingDB's records for doi:10.1016/s0960-894x(99)00014-1 (Zeria Pharmaceutical, 1999).

Test: In vitro thromboxane A2 antagonistic activity on aggregation of rabbit platelets induced by U-46,619 (4 uM)

| SMILES | IC50 |
| --- | --- |
| O=C(O)c1ccc2c(c1)CC(CCNS(=O)(=O)c1ccc(Cl)cc1)C2 (stereo unspecified) [Sodium; 2-[2-(4-chloro-benzenesulfonylamino)-ethyl]-indan-5-carboxylate] | 7760 nM |
| O=C(O)c1ccc2c(c1)CC(CCCNS(=O)(=O)c1ccc(Cl)cc1)C2 (stereo unspecified) [Sodium; 2-[3-(4-chloro-benzenesulfonylamino)-propyl]-indan-5-carboxylate] | 6600 nM |
| O=C(O)c1ccc2c(c1)CC(CCCCNS(=O)(=O)c1ccc(Cl)cc1)C2 (stereo unspecified) [Sodium; 2-[4-(4-chloro-benzenesulfonylamino)-butyl]-indan-5-carboxylate] | 100000 nM |
| O=C(O)CCCCc1ccc2c(c1)CC(CNS(=O)(=O)c1ccc(Cl)cc1)C2 (stereo unspecified) [Sodium; 5-{2-[(4-chloro-benzenesulfonylamino)-methyl]-indan-5-yl}-pentanoate] | 2880 nM |
| O=C(O)Cc1ccc2c(c1)CC(NS(=O)(=O)c1ccc(Cl)cc1)C2 (stereo unspecified) [Sodium; [2-(4-chloro-benzenesulfonylamino)-indan-5-yl]-acetate] | 360 nM |
| O=C(O)Cc1ccc2c(c1)CC(CNS(=O)(=O)c1ccccc1)C2 (stereo unspecified) [Sodium; [2-(benzenesulfonylamino-methyl)-indan-5-yl]-acetate] | 1020 nM |
| O=C(O)Cc1ccc2c(c1)CC(CNS(=O)(=O)C1CCCCC1)C2 (stereo unspecified) [Sodium; [2-(cyclohexanesulfonylamino-methyl)-indan-5-yl]-acetate] | 17800 nM |
| O=C(O)Cc1ccc2c(c1)CC(CNS(=O)(=O)Cc1ccccc1)C2 (stereo unspecified) [Sodium; [2-(phenylmethanesulfonylamino-methyl)-indan-5-yl]-acetate] | > 100000 nM |
| O=C(O)Cc1ccc2c(c1)CC(CNS(=O)(=O)c1ccc(Cl)cc1)O2 (stereo unspecified) [Sodium; {2-[(4-chloro-benzenesulfonylamino)-methyl]-2,3-dihydro-benzofuran-5-yl}-acetate] | 320 nM |
| O=C(O)Cc1ccc2c(c1)CC(CNS(=O)(=O)c1cccc3ccccc13)C2 (stereo unspecified) [Sodium; {2-[(naphthalene-1-sulfonylamino)-methyl]-indan-5-yl}-acetate] | 47900 nM |
| O=C(O)Cc1ccc2c(c1)CC(CNS(=O)(=O)c1ccc3ccccc3c1)C2 (stereo unspecified) [Sodium; {2-[(naphthalene-2-sulfonylamino)-methyl]-indan-5-yl}-acetate] | 950 nM |
| CCCCCS(=O)(=O)NCC1Cc2ccc(CC(=O)O)cc2C1 (stereo unspecified) [Sodium; {2-[(pentane-1-sulfonylamino)-methyl]-indan-5-yl}-acetate] | 77600 nM |
| O=C(O)Cc1ccc2c(c1)CC(CNS(=O)(=O)c1cccnc1)C2 (stereo unspecified) [Sodium; {2-[(pyridine-3-sulfonylamino)-methyl]-indan-5-yl}-acetate] | > 100000 nM |
| O=C(O)Cc1ccc2c(c1)CC(CNS(=O)(=O)c1cccs1)C2 (stereo unspecified) [Sodium; {2-[(thiophene-2-sulfonylamino)-methyl]-indan-5-yl}-acetate] | 2810 nM |

Other lines, results leading:

| IC50 | SMILES |
| --- | --- |
| 1320 nM | O=C(O)c1ccc2c(c1)CC(CNS(=O)(=O)c1ccc(Cl)cc1)C2 (stereo unspecified) [Sodium; 2-[(4-chloro-benzenesulfonylamino)-methyl]-indan-5-carboxylate] |
| 160 nM | O=C(O)CCc1ccc2c(c1)CC(CNS(=O)(=O)c1ccc(Cl)cc1)C2 (stereo unspecified) [Sodium; 3-{2-[(4-chloro-benzenesulfonylamino)-methyl]-indan-5-yl}-propionate] |
| 1340 nM | O=C(O)CCCc1ccc2c(c1)CC(CNS(=O)(=O)c1ccc(Cl)cc1)C2 (stereo unspecified) [Sodium; 4-{2-[(4-chloro-benzenesulfonylamino)-methyl]-indan-5-yl}-butyrate] |
| 1480 nM | O=C(O)Cc1ccc2c(c1)CC(CCNS(=O)(=O)c1ccc(Cl)cc1)C2 (stereo unspecified) [Sodium; {2-[2-(4-chloro-benzenesulfonylamino)-ethyl]-indan-5-yl}-acetate] |
| 72300 nM | O=C(O)Cc1ccc2c(c1)CC(CCCNS(=O)(=O)c1ccc(Cl)cc1)C2 (stereo unspecified) [Sodium; {2-[3-(4-chloro-benzenesulfonylamino)-propyl]-indan-5-yl}-acetate] |
| > 100000 nM | O=C(O)Cc1ccc2c(c1)CC(CCCCNS(=O)(=O)c1ccc(Cl)cc1)C2 (stereo unspecified) [Sodium; {2-[4-(4-chloro-benzenesulfonylamino)-butyl]-indan-5-yl}-acetate] |
| 360 nM | O=C(O)Cc1ccc2c(c1)CC(CNS(=O)(=O)c1ccc(Cl)cc1)C2 (stereo unspecified) [Sodium; {2-[(4-chloro-benzenesulfonylamino)-methyl]-indan-5-yl}-acetate] |
